Like-named read-outs stand apart in the source and are kept apart here.
Key:
[1] = cited from earlier work
[2] = human, in vivo; cited from earlier work
[3] = Internal safety review of lung cancer clinical trials (paclitaxel); format: in vivo, human; details: patients from Asian countries compared with those from non-Asian countries
Description: Patients of Asian race/ethnicity have a lower starting dose of paclitaxel at 175 mg/m2 IV over 3 hours. […] As used in this study, Asian race/ethnicity refers to a panethnic/racial group that includes diverse populations who either live or have ancestral origins in East Asia, Southeast Asia, or South Asia. The applicability of such term in a particular patient is at the discretion of the treating investigator and should be based on the patient's clinical characteristics and country of origin.

[4] = tested on: patients with advanced or metastatic HCC; details: cited from earlier work
[5] = tested on: patients with metastatic bladder; details: 8 of 17 patients at the recommended Phase II dose; prior CPI treatment; 95% CI: 23, 72.2; cited from earlier work
[6] = tested on: chemotherapy-naive patients with locally advanced unresectable or metastatic PD-L1-selected NSCLC; details: cutoff 30 Jun. 2019
[7] = tested on: patients with mUC who had progressed on platinum-based therapy and checkpoint inhibitor therapy; details: cited from earlier work

## [NH2][Pt]1([NH2])[O]C(=O)C2(CCC2)C(=O)[O]1 [carboplatin, platinum, diammine[I,I-cyclobutanedicarboxylato(2-)-0,0′]-, (SP-4-2)]
[1]; 1% solution
  pH of a 1% solution: 5 to 7
[1]; ethanol, acetone, dimethylacetamide
  solubility in ethanol, acetone, and dimethylacetamide: virtually insoluble
[1]; water
  solubility in water: approximately 14 mg/mL

## Nc1ccn([C@@H]2O[C@H](CO)[C@@H](O)C2(F)F)c(=O)n1 [gemcitabine]
[2]
  most common adverse events: nausea/vomiting, anemia, hepatic transaminitis, neutropenia, increased ALP, proteinuria, fever, hematuria, rash, thrombocytopenia, dyspnea, and peripheral edema

## CC(=O)O[C@H]1C(=O)[C@@]2(C)[C@H]([C@H](OC(=O)c3ccccc3)[C@]3(O)C[C@H](OC(=O)[C@H](O)[C@@H](NC(=O)c4ccccc4)c4ccccc4)C(C)=C1C3(C)C)[C@]1(OC(C)=O)CO[C@@H]1C[C@@H]2O [paclitaxel]
[3]
  incidence of hematologic toxicities: higher overall incidence of hematologic toxicities

## CNC(=O)c1cc(Oc2ccc(NC(=O)Nc3ccc(Cl)c(C(F)(F)F)c3)cc2)ccn1 [sorafenib]
[4]; Independent Review Facility-assessed per RECIST v1.1
  median PFS: 4.27 months
[4]; in vivo
  median OS: 13.24 months

## enfortumab vedotin
[5]
  patients who obtained a PR: 47%

## placebo and atezolizumab: control arm of Study GO40290: placebo in combination with atezolizumab
[6]; 135 safety-evaluable patients, tiragolumab 600 mg every 3 weeks
  all-grade adverse events: 95.6%
[6]; ITT population
  ORR: 16.2%
  investigator-assessed PFS: 3.6 months
[6]
  AEs leading to treatment discontinuation: 10.3%
  Grade ≥3 AEs: 44.1%
  adverse events of special interest: 32.4%
  serious AEs: 35.3%

## sacituzumab govitecan
[7]; 35 patients
  ORR: 29%
[7]; patients with liver metastases
  ORR: 25.0%

From patent US20220016243A1, “METHODS FOR TREATMENT OF CANCER WITH AN ANTI-TIGIT ANTAGONIST ANTIBODY” (Genentech, Inc., priority 2020, published 2022)
